Assay results published in patent publication US9522917B2, “Bruton's tyrosine kinase inhibitors for hematopoietic mobilization” (Acerta Pharma B.V., priority 2012, dated 2016).

Assays:
[1] = test system: Human CD34+ hematopoietic progenitor cells; assay: In vitro Transwell migration of human CD34+ cells towards an SDF-1 gradient; assay type: cell-based
Protocol: Human CD34+ hematopoietic progenitor cells were isolated from G-CSF mobilized peripheral blood and incubated with varying concentrations (0.1 μM, 1.0 μM and 10 μM) of the pyrimidine-based BTK inhibitor 1-[(3R)-3-[4-amino-3-(4-phenoxyphenyl)pyrazolo[3,4-d]pyrimidin-1-yl]piperidin-1-yl]prop-2-en-1-one for one hour at 37° C., 5% CO2 in serum free media (0.5% bovine serum albumin in RPMI media). Cells were then transferred to the upper chamber of a Transwell migration plate (5.0 um pore size, Costar Inc.). The lower chamber contained only serum-free media with 100 ng/ml SDF-1. Cells were incubated for five hours at 37° C., 5% CO2 to allow for cell migration from the upper chamber to the lower chamber. Cells that migrated into the lower chamber were counted using a hemocytometer.

stem cell migration = settings: cited from earlier work

SMILES	inhibition of stem cell migration ([1]; 0.1 μM, 1.0 μM and 10 μM, one hour preincubation, five hours migration to 100 ng/ml SDF-1, FIG. 1)	activity at lower concentration than reported for plerixafor ([1]; versus plerixafor (50 μM) in similar assays)	concentration reported for activity in similar assays (stem cell migration)
C=CC(=O)N1CCC[C@@H](n2nc(-c3ccc(Oc4ccccc4)cc3)c3c(N)ncnc32)C1 [Btk inhibitor, 1-[(3R)-3-[4-amino-3-(4-phenoxyphenyl)pyrazolo[3,4-d]pyrimidin-1-yl]piperidin-1-yl]prop-2-en-1-one]	inhibition of stem cell migration was seen at all tested concentrations	500 fold	–
c1cc(CN2CCCNCCNCCCNCC2)ccc1CN1CCCNCCNCCCNCC1 [plerixafor]	–	–	50 µM
